Experimental findings from patent publication US9133204B2, “5-membered heterocyclic amides and related compounds” (H. Lundbeck A/S, priority 2007, dated 2015) are described below.

The target in the first test is T1, P2X7 receptor (Homo sapiens, UniProt Q99572).
T1 construct: host or cells: SH-SY5Y
T1 sequence (Q99572 1-595): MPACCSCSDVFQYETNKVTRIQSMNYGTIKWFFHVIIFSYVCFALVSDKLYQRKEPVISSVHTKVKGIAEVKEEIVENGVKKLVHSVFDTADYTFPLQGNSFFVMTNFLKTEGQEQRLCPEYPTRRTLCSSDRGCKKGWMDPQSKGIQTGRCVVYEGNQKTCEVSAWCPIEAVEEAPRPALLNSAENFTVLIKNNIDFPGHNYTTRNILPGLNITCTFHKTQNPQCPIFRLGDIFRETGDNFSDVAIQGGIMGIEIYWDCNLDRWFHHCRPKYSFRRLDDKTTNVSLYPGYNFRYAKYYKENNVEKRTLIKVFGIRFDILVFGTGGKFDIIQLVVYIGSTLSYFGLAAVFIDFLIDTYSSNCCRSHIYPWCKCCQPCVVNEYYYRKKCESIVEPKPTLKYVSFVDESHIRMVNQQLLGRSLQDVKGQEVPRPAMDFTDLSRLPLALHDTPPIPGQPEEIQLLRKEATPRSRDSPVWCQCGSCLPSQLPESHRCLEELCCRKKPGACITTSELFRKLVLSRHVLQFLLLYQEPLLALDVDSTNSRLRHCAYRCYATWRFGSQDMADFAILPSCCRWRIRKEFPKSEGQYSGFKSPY
Briefly: High throughput P2X7 calcium mobilization assay (Example 4A). The conditions noted are these: SH-SY5Y cells; 50% decrease in fluorescence response of cells exposed to 80 μM BzATP; Table I. The format is cell-based. The method, boiled down:
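Calcium mobilization read by FLIPR as peak fluorescence over 2 min after adding BzATP to a final 80 μM (about EC50). Beforehand, Fluo-4 AM-loaded SH-SY5Y cells sat 1 h at room temperature with compound at 1–2500 nM in pH 7.4 sucrose/HEPES buffer; signal minus no-agonist wells.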
Turning to `N[C@@H]1CCN(C2(CNC(=O)c3sc(-c4ncccn4)nc3C(F)(F)F)CCCCC2)C1` [Compound 162, N-({1-[(3R)-3-aminopyrrolidin-1-yl]cyclohexyl}methyl)-2-pyrimidin-2-yl-4-(trifluoromethyl)-1,3-thiazole-5-carboxamide], the IC50 was no more than 2000 nM. The same measure, in the same setting: in the case of `Cc1cnc(-n2cc(C(=O)NCC34CC5CC(CC(C5)C3)C4)c(C)n2)nc1Br` [Compound 91, N-(adamantan-1-ylmethyl)-1-(4-bromo-5-methylpyrimidin-2-yl)-3-methyl-1H-pyrazole-4-carboxamide] it was no more than 2000 nM; in that of `O=C(NCCC12CC3CC(CC(C3)C1)C2)c1cn(-c2ncccn2)nc1C(F)(F)F` [Compound 193, N-(2-adamantan-1-ylethyl)-1-pyrimidin-2-yl-3-(trifluoromethyl)-1H-pyrazole-4-carboxamide], no more than 2000 nM; in that of `Cc1cnc(-n2cc(C(=O)NCC(CC(C)C)c3ccc(C(F)(F)F)cc3)c(C(F)(F)F)n2)nc1N` (stereo not drawn) [Compound 171, 1-(4-amino-5-methylpyrimidin-2-yl)-N-{4-methyl-2-[4-(trifluoromethyl)phenyl]pentyl}-3-(trifluoromethyl)-1H-pyrazole-4-carboxamide], no more than 2000 nM. Still for that read-out and setting: under `O=C(NCC1(N2CCOCC2)CCCCC1)c1sc(-c2ncccn2)nc1C(F)(F)F` [Compound 159, N-[(1-morpholin-4-ylcyclohexyl)methyl]-2-pyrimidin-2-yl-4-(trifluoromethyl)-1,3-thiazole-5-carboxamide] stands no more than 2000 nM; under `Cc1nn(-c2ncc(F)cn2)cc1C(=O)NCC(CC(C)C)c1ccc(C(F)(F)F)cc1` (stereo not drawn) [Compound 117, 1-(5-fluoropyrimidin-2-yl)-3-methyl-N-{4-methyl-2-[4-(trifluoromethyl)phenyl]pentyl}-1H-pyrazole-4-carboxamide], no more than 2000 nM.

As for `COc1ccc(C2(CNC(=O)c3cn(-c4ncc(F)c(N)n4)nc3C(F)(F)F)CCCCC2)cc1` [Compound 168, 1-(4-amino-5-fluoropyrimidin-2-yl)-N-{[1-(4-methoxyphenyl)cyclohexyl]methyl}-3-(trifluoromethyl)-1H-pyrazole-4-carboxamide], the IC50 was no more than 2000 nM. On the same count and under the same terms, in the case of `Cc1cnc(-n2cc(C(=O)NCC3(c4ccc(F)cc4)CCCCC3)c(C(F)(F)F)n2)nc1N` [Compound 190, 1-(4-amino-5-methylpyrimidin-2-yl)-N-{[1-(4-fluorophenyl)cyclohexyl]methyl}-3-(trifluoromethyl)-1H-pyrazole-4-carboxamide] it was no more than 2000 nM; in that of `CC(C)c1nn(-c2ncc(F)cn2)cc1C(=O)NCC12CC3CC(CC(C3)C1)C2` [Compound 127, N-(adamantan-1-ylmethyl)-1-(5-fluoropyrimidin-2-yl)-3-isopropyl-1H-pyrazole-4-carboxamide], no more than 2000 nM. As to `Cc1cnc(-n2cc(C(=O)NCC34CC5CC(CC(C5)C3)C4)c(C)n2)nc1N` [Compound 45, N-(adamantan-1-ylmethyl)-1-(4-amino-5-methylpyrimidin-2-yl)-3-methyl-1H-pyrazole-4-carboxamide], the IC50 was no more than 2000 nM. On the same count and under the same terms, under `CCCc1ccc(C(=O)NCC23CC4CC(CC(C4)C2)C3)s1` [Compound 78, N-(1-adamantylmethyl)-5-propylthiophene-2-carboxamide] stands no more than 2000 nM; under `O=C(NCC1(c2cccnc2)CCCCC1)c1sc(-n2nccn2)nc1C(F)(F)F` [Compound 309, N-[(1-pyridin-3-ylcyclohexyl)methyl]-2-(2H-1,2,3-triazol-2-yl)-4-(trifluoromethyl)-1,3-thiazole-5-carboxamide], no more than 2000 nM. On the same count and under the same terms, in the case of `O=C(NCC1(c2cccnc2)CCCCC1)c1cn(-c2ncc(Cl)cn2)nc1C(F)(F)F` [Compound 192, 1-(5-chloropyrimidin-2-yl)-N-[(1-pyridin-3-ylcyclohexyl)methyl]-3-(trifluoromethyl)-1H-pyrazole-4-carboxamide] it was no more than 2000 nM. On the same count and under the same terms, under `CCc1nc(-c2ncccn2)sc1C(=O)NCC1(c2ccc(OC)cc2)CCCCC1` [Compound 250, 4-ethyl-N-{[1-(4-methoxyphenyl)cyclohexyl]methyl)-2-pyrimidin-2-yl-1,3-thiazole-5-carboxamide] stands no more than 2000 nM; under `COC(=O)c1cc(C(=O)NCC23CC4CC(CC(C4)C2)C3)n(C(C)C)n1` [Compound 47, methyl 5-[(adamantan-1-ylmethyl)carbamoyl]-1-isopropyl-1H-pyrazole-3-carboxylate], no more than 2000 nM. With `Cc1ccc(-n2cc(C(=O)NCC34CC5CC(CC(C5)C3)C4)c(C)n2)nc1` [Compound 97, N-(adamantan-1-ylmethyl)-3-methyl-1-(5-methylpyridin-2-yl)-1H-pyrazole-4-carboxamide], the IC50 was no more than 2000 nM. On the same count and under the same terms, in the case of `CC(C)CC(CNC(=O)c1sc(-c2ncccn2)nc1C(F)(F)F)c1ccc(Cl)nc1` (stereo not drawn) [Compound 292, N-[2-(6-chloropyridin-3-yl)-4-methylpentyl]-2-pyrimidin-2-yl-4-(trifluoromethyl)-1,3-thiazole-5-carboxamide] it was no more than 2000 nM. On the same count and under the same terms, in the case of `Cc1nn(-c2ncc(F)c(N)n2)cc1C(=O)NCC(CC(C)C)c1ccc(C(F)(F)F)cc1` (stereo not drawn) [Compound 116, 1-(4-amino-5-fluoropyrimidin-2-yl)-3-methyl-N-{4-methyl-2-[4-(trifluoromethyl)phenyl]pentyl}-1H-pyrazole-4-carboxamide] it was no more than 2000 nM; in that of `CCc1nc(-c2ncccn2)sc1C(=O)NCC(CC(C)C)c1ccccc1` (stereo not drawn) [Compound 258, 4-ethyl-N-(4-methyl-2-phenylpentyl)-2-pyrimidin-2-yl-1,3-thiazole-5-carboxamide], no more than 2000 nM. On the same count and under the same terms, in the case of `CCc1nc(-c2ncccn2)sc1C(=O)NCC1(c2cccnc2)CCCCC1` [Compound 219, 4-ethyl-N-[(1-pyridin-3-ylcyclohexyl)methyl]-2-pyrimidin-2-yl-1,3-thiazole-5-carboxamide] it was no more than 2000 nM; in that of `Cc1cnc(-n2cc(C(=O)NCC(CC(C)C)c3ccc(C(F)(F)F)cc3)c(C(C)(C)C)n2)nc1N` (stereo not drawn) [Compound 176, 1-(4-amino-5-methylpyrimidin-2-yl)-3-tert-butyl-N-{4-methyl-2-[4-(trifluoromethyl)phenyl]pentyl}-1H-pyrazole-4-carboxamide], no more than 2000 nM. For `O=C(NCC1(c2cccnc2)CCCCC1)c1sc(-c2ccccn2)nc1C(F)(F)F` [Compound 321, 2-pyridin-2-yl-N-[(1-pyridin-3-ylcyclohexyl)methyl]-4-(trifluoromethyl)-1,3-thiazole-5-carboxamide], the IC50 was no more than 2000 nM. Still for that read-out and setting: under `CC1CC(NC(=O)c2cn(-c3ncccn3)nc2C(F)(F)F)CC(C)(C)C1` (stereo not drawn) [Compound 216, 1-pyrimidin-2-yl-3-(trifluoromethyl)-N-(3,3,5-trimethylcyclohexyl)-1H-pyrazole-4-carboxamide] stands no more than 2000 nM; under `Cc1nn(C)c(C(=O)NCC23CC4CC(CC(C4)C2)C3)c1Br` [Compound 62, N-(adamantan-1-ylmethyl)-4-bromo-1,3-dimethyl-1H-pyrazole-5-carboxamide], no more than 2000 nM.

For the molecule `CN1CCN(C2(CNC(=O)c3sc(-c4ncccn4)nc3C(F)(F)F)CCCCC2)CC1` [Compound 312, N-{[1-(4-methylpiperazin-1-yl)cyclohexyl]methyl}-2-pyrimidin-2-yl-4-(trifluoromethyl)-1,3-thiazole-5-carboxamide], the half-inhibitory concentration (IC50) is no more than 2000 nM. On the same count and under the same terms, under `Nc1nc(-n2cc(C(=O)NCC3(c4ccc(Cl)cc4)CCCCC3)c(C(F)(F)F)n2)ncc1F` [Compound 141, 1-(4-amino-5-fluoropyrimidin-2-yl)-N-{[1-(4-chlorophenyl)cyclohexyl]methyl}-3-(trifluoromethyl)-1H-pyrazole-4-carboxamide] stands no more than 2000 nM.

The test is the same for the next values; noted with them: SH-SY5Y cells; 50% decrease in fluorescence response of cells exposed to 80 μM BzATP; flag after the MS data in Examples 1-2.
With `Cc1nc(-c2cccnc2)sc1C(=O)NCC(CC(C)C)c1ccc(Cl)cc1` (stereo not drawn) [Compound 31, N-[2-(4-Chlorophenyl)-4-methylpentyl}-4-methyl-2-pyridin-3-yl-1,3-thiazole-5-carboxamide], the IC50 was no more than 2000 nM.

Consider `O=C(NCC1(c2cccnc2)CCCCC1)c1sc(N2CCCCS2(=O)=O)nc1C(F)(F)F` [Compound 26, 2-(1,1-Dioxido-1,2-thiazinan-2-yl)-N-[(1-pyridin-3-ylcyclohexyl)methyl]-4-(trifluoromethyl)-1,3-thiazole-5-carboxamide], for which the IC50 is no more than 2000 nM.

`O=C(NCC1(c2ccc(C(F)(F)F)cc2)CCCCC1)c1cn(-c2ncccn2)nc1Cl` [Compound 10, 3-Chloro-1-pyrimidin-2-yl-N-({1-[4-(trifluoromethyl)phenyl]cyclohexyl}methyl)-1H-pyrazole-4-carboxamide]: the IC50 is no more than 2000 nM. Still for that read-out and setting: under `O=C(CC12CC3CC(CC(C3)C1)C2)Nc1cn(-c2ncccn2)nc1C(F)(F)F` [Compound 15, 2-Adamantan-1-yl-N-(1-pyrimidin-2-yl-3-trifluoromethyl-1H-pyrazol-4-yl)-acetamide] stands no more than 2000 nM.

Broadly, the IC50 is the point on the concentration scale where inhibition reaches its midpoint.
